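All cell lines were grown in 96-well plates and treated with compound for 48 hours. The concentration for 50% growth inhibition is given as GI50.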 Calls of active or inactive are those of the source. No stated cut-off is given here; in the data, active = GI50 up to about 1.1 µM and inactive = higher.
Legend:
Assay in all cases: DTP human tumour cell line panel, 48 h
786-0 = tested on: 786-0
A498 = tested on: A498
A549 = tested on: A549
ACHN = tested on: ACHN
BT-549 = tested on: BT-549
CAKI-1 = tested on: CAKI-1
CCRF-CEM = tested on: CCRF-CEM
COLO 205 = tested on: COLO 205
DU-145 = tested on: DU-145
EKVX = tested on: EKVX
HCC 2998 = tested on: HCC 2998
HCT-116 = tested on: HCT-116
HCT-15 = tested on: HCT-15
HL-60 = tested on: HL-60
HOP-62 = tested on: HOP-62
HOP-92 = tested on: HOP-92
HT-29 = tested on: HT-29
Hs-578T = tested on: Hs-578T
IGROV-1 = tested on: IGROV-1
K562 = tested on: K562
KM12 = tested on: KM12
LOX IMVI = tested on: LOX IMVI
M14 = tested on: M14
MCF7 = tested on: MCF7
MDA-MB-231 = tested on: MDA-MB-231
MDA-MB-435 = tested on: MDA-MB-435
MDA-N = tested on: MDA-N
MOLT-4 = tested on: MOLT-4
Malme-3M = tested on: Malme-3M
NCI-H226 = tested on: NCI-H226
NCI-H23 = tested on: NCI-H23
NCI-H460 = tested on: NCI-H460
NCI-H522 = tested on: NCI-H522
NCI/ADR-RES = tested on: NCI/ADR-RES
OVCAR-3 = tested on: OVCAR-3
OVCAR-4 = tested on: OVCAR-4
OVCAR-5 = tested on: OVCAR-5
OVCAR-8 = tested on: OVCAR-8
PC-3 = tested on: PC-3
RPMI-8226 = tested on: RPMI-8226
RXF 393 = tested on: RXF 393
SF-268 = tested on: SF-268
SF-295 = tested on: SF-295
SF-539 = tested on: SF-539
SK-MEL-28 = tested on: SK-MEL-28
SK-MEL-2 = tested on: SK-MEL-2
SK-MEL-5 = tested on: SK-MEL-5
SK-OV-3 = tested on: SK-OV-3
SN12C = tested on: SN12C
SNB-19 = tested on: SNB-19
SNB-75 = tested on: SNB-75
SR = tested on: SR
SW-620 = tested on: SW-620
T47D = tested on: T47D
TK-10 = tested on: TK-10
U-251 = tested on: U-251
UACC-257 = tested on: UACC-257
UACC-62 = tested on: UACC-62
UO-31 = tested on: UO-31

O=C(c1c(F)c(F)c(F)c(F)c1F)n1c(O)nc2ccccc21
GI50 (786-0): 10.8 µM (inactive)
GI50 (A498): 19.1 µM (inactive)
GI50 (A549): 16.7 µM (inactive)
GI50 (ACHN): 16.1 µM (inactive)
GI50 (BT-549): 18.5 µM (inactive)
GI50 (CAKI-1): 5.82 µM (inactive)
GI50 (CCRF-CEM): 4.53 µM (inactive)
GI50 (COLO 205): 12.9 µM (inactive)
GI50 (DU-145): 15.7 µM (inactive)
GI50 (EKVX): 13.9 µM (inactive)
GI50 (HCC 2998): 3.56 µM (inactive)
GI50 (HCT-116): 3.49 µM (inactive)
GI50 (HCT-15): 5.06 µM
GI50 (HL-60): 2.42 µM (inactive)
GI50 (HOP-62): 17.2 µM (inactive)
GI50 (HOP-92): 2.88 µM (inactive)
GI50 (HT-29): 6.28 µM (inactive)
GI50 (Hs-578T): 17.2 µM (inactive)
GI50 (IGROV-1): 11.4 µM (inactive)
GI50 (K562): 3.51 µM (inactive)
GI50 (KM12): 1.54 µM (inactive)
GI50 (LOX IMVI): 3.83 µM (inactive)
GI50 (M14): 9.33 µM (inactive)
GI50 (MCF7): 4.04 µM (inactive)
GI50 (MDA-MB-231): 12.2 µM (inactive)
GI50 (MDA-MB-435): 10.1 µM (inactive)
GI50 (MDA-N): 7.33 µM (inactive)
GI50 (MOLT-4): 4.47 µM (inactive)
GI50 (Malme-3M): 14.8 µM (inactive)
GI50 (NCI-H226): 17.3 µM (inactive)
GI50 (NCI-H23): 4.88 µM (inactive)
GI50 (NCI-H460): 12.8 µM (inactive)
GI50 (NCI-H522): 5.9 µM (inactive)
GI50 (NCI/ADR-RES): 22 µM (inactive)
GI50 (OVCAR-3): 9.77 µM (inactive)
GI50 (OVCAR-4): 13.3 µM (inactive)
GI50 (OVCAR-5): 15.7 µM (inactive)
GI50 (OVCAR-8): 13.2 µM (inactive)
GI50 (PC-3): 7.93 µM (inactive)
GI50 (RPMI-8226): 3.03 µM (inactive)
GI50 (RXF 393): 8.59 µM (inactive)
GI50 (SF-268): 14.7 µM (inactive)
GI50 (SF-295): 16.4 µM (inactive)
GI50 (SF-539): 13.6 µM (inactive)
GI50 (SK-MEL-28): 15 µM (inactive)
GI50 (SK-MEL-2): 4.2 µM (inactive)
GI50 (SK-MEL-5): 15.2 µM (inactive)
GI50 (SK-OV-3): 15.4 µM (inactive)
GI50 (SN12C): 14.1 µM (inactive)
GI50 (SNB-19): 14.9 µM (inactive)
GI50 (SNB-75): 16.5 µM (inactive)
GI50 (SR): 2.62 µM (inactive)
GI50 (SW-620): 4.91 µM (inactive)
GI50 (T47D): 3.94 µM (inactive)
GI50 (TK-10): 5.19 µM (inactive)
GI50 (U-251): 12.5 µM (inactive)
GI50 (UACC-257): 5.69 µM (inactive)
GI50 (UACC-62): 12.1 µM (inactive)
GI50 (UO-31): 12.3 µM (inactive)

Reference: ChEMBL document CHEMBL1201862, “PubChem BioAssay data set” (2004)
